Assay results taken from article PMC3964211, “Pharmacokinetic modeling optimizes inhibition of the ‘undruggable’ EWS-FLI1 transcription factor in Ewing Sarcoma” (Oncotarget, 2013).

Tests used:
[1] = Pharmacokinetics in SD rats, single oral gavage; assay type: in vivo, Sprague-Dawly (SD) rats; settings: analyte (S)-YK-4-279 in plasma
Method: To optimize dosing in animals, we determined the pharmacokinetics of YK-4-279 and its single enantiomers in Sprague-Dawly (SD) rats. Three rats of each gender were assigned to nine dose groups. Animals in Groups 1 through 3 received a single intravenous (IV) injection of racemic mixture, (S)-YK-4-279, or (R)-YK-4-279 at a dose of 25 mg/kg. Animals in Groups 4 through 9 received a single oral gavage administration of racemic mixture, (S)-YK-4-279, or (R)-YK-4-279 at a dosage level of 25 or 50 mg/kg. […] However, given that approximately 50 percent of the racemic mixture is (S)-YK-4-279 and the clearance […] the dose, the IV clearance of (S)-YK-4-279 is considered to be similar whether a racemic mixture or only (S)-YK-4-279 is administered. Systemic exposure to (S)-YK-4-279 was evaluated using Cmax and AUC values. Cmax and AUC8 values were similar between males and females for a given dose group. With an expected enantiomer ratio of 1:1 in the racemic dose, Group 2 animals would have received a 2-fold higher dose of (S)-YK-4-279 than Group 1 animals. […] Absolute bioavailability of (S)-YK-4-279 following gavage administration, using cremophor/ethanol as an excipient, in SD rats was only 2–6% (Table 2).
Nine SD rats of each gender were assigned to nine dose groups. Groups 1 through 3 received a single IV injection of racemic mixture, (S)-YK-4-279, or (R)-YK-4-279 at a dose of 25 mg/kg. Groups 4 through 9 received a single gavage administration of racemic mixture, (S)-YK-4-279, or (R)-YK-4-279 at a dosage level of 25 or 50 mg/kg. Blood samples were collected from one animal per group per time point at target time points of pre-dose, 5, 15, 30 and 60 minutes, and 2, 4, 8 and 12 hours following dosing. Plasma was obtained from the samples and analyzed for (S) and (R)-YK-4-279 concentrations.
(§1) The plasma and tumor sample analysis was performed using calibration standards and Quality Control (QC) samples prepared in control rat or mouse plasma and tumor tissues. Plasma and tumor calibration standards were prepared from stock solutions of YK-4-279. The calibration standards, blanks, QC samples, and study samples were then processed by solid-liquid extraction (SLE) followed by analysis using liquid chromatography with mass spectrometry (LC-MS). The LC-MS systems used for the analysis of YK-4-279 was composed of Shimadzo prominence pump and auto-sampler (Kyoto, Japan), a Sciex API 5000 MS (Toronto, Ontario), with turbo ion spary in the positive ion mode. The samples for the analysis of total YK-4-279 were injected into a 50 × 2 mm Gemini- NX, 5 ¼m column (Phenomenex, Torrance, CA). The samples for the analysis of the specific enantiomers of YK-4-279 were injected into a 150 × 2 mm Lux Cellulose-2, 3 ¼m Phenomenex column. The transitions monitored were 366 amu to 135 amu for YK-4-279 and 369 amu to 138 amu for the YK-4-279-d3 internal standard. YK-4-279 concentrations were calculated using peak area response ratios and a regression equation constructed from the concentrations and peak area response ratios of the calibration standards. The lower limit of quantitation was 5.0 ng/mL in plasma and […] in tumor tissue. The concentration-time profiles were evaluated by compartmental modeling and non-compartmental analysis using WinNonlin (Pharsight Corporation, Mountain View, CA). The PK parameters obtained from the compartmental modeling were used in simulations to identify optimal dose level and dosing schedule for maintaining plasma concentration of (S)-YK-4-279 above 3 ¼M.

[2] = Plasma concentration after IP injection of various formulations in C57BL/6 mice; assay type: in vivo; settings: C57BL/6 mouse plasma, 20 minutes after IP 200 mg/kg racemic mixture, 10% w/v sucrose, 1% v/v Tween 80, 5% v/v ethanol in DI water, mean ±SD, five mice
Method: The poor oral bioavailability determined from the rat study caused us to focus on IV delivery. Since mice often metabolize compounds differently from rats, we also evaluated the intraperitoneal (IP) PK profle and compared it to the IV profile. We determined pharmacokinetics in C57BL/6 mice given IV (Figure 2A) or IP (Figure 2B) administrations of 75 mg/kg YK-4-279, which was the maximal solubility of compound in 20% Cremophor EL. […] In addition, drug levels in tumor were measured using SCID/bg mice with orthotopic xenografts that were treated with daily IV injections of (S)-YK-4-279 for 6 days. […] In order to determine (S)-YK-4-279 levels in the tumors, the mice were euthanized 2 hours following the fnal IV bolus dose for harvest of both tumors and plasma. […] Since the IV treatment was ineffective at reducing tumor growth, despite measurable levels in the tumor tissue, models of IP administration were used to design follow-up effcacy studies.
as §1

A4573 cells = test: Time point re-plating (colony formation) assay; assay type: cell-based; settings: for Colony counts: then replated without YK-4-279
Method: We determined the replating efficiency of A4573 cells after 12–84 hours of treatment with 3 ¼M YK-4-279. Cells were treated for the indicated exposure time then replated without YK-4-279 to assay for colony formation (Figure 1A).
A4573 cells were plated at a density of 2×10^5 cells/dish in 60 mm dishes and incubated for 8 hours before treatment start with 3 ¼M racemic YK-4-279. Cells were removed with trypsin at their respective treatment time, cell suspensions were centrifuged, and cells were resuspended in 500 ¼l of media. One hundred microliters of cell suspension was plated in each 10 cm dish (triplicates) with 12 ml of media. Dishes were incubated for 1 week before staining with crystal violet stain. Colonies were counted using Nikon NIS Elements BR Software.

[3] = female (n=9), oral gavage 25 mg/kg
[4] = female (n=9), oral gavage 50 mg/kg
[5] = male (n=9), oral gavage 25 mg/kg
[6] = male (n=9), oral gavage 50 mg/kg
[7] = A4573 cells, 3 ¼M YK-4-279, 84 hours exposure

COc1ccc(C(=O)C[C@]2(O)C(=O)Nc3c(Cl)ccc(Cl)c32)cc1 [(R)-YK-4-279]
AUClast [1, 3]: BLOQ
AUC∞ [1, 3]: BLOQ
Absolute Bioavailability [1, 3]: BLOQ
Apparent Clearance [1, 3]: BLOQ
Observed Cmax [1, 3]: BLOQ
Observed Tmax [1, 3]: BLOQ
Terminal Elimination Half-Life [1, 3]: BLOQ
AUClast [1, 4]: BLOQ
AUC∞ [1, 4]: BLOQ
Absolute Bioavailability [1, 4]: BLOQ
Apparent Clearance [1, 4]: BLOQ
Observed Cmax [1, 4]: BLOQ
Observed Tmax [1, 4]: BLOQ
Terminal Elimination Half-Life [1, 4]: BLOQ
AUClast [1, 5]: BLOQ
AUC∞ [1, 5]: BLOQ
Absolute Bioavailability [1, 5]: BLOQ
Apparent Clearance [1, 5]: BLOQ
Observed Cmax [1, 5]: BLOQ1
Observed Tmax [1, 5]: BLOQ
Terminal Elimination Half-Life [1, 5]: BLOQ
AUClast [1, 6]: BLOQ
AUC∞ [1, 6]: BLOQ
Absolute Bioavailability [1, 6]: BLOQ
Apparent Clearance [1, 6]: BLOQ
Observed Cmax [1, 6]: BLOQ
Observed Tmax [1, 6]: BLOQ
Terminal Elimination Half-Life [1, 6]: BLOQ

COc1ccc(C(=O)CC2(O)C(=O)Nc3c(Cl)ccc(Cl)c32)cc1 (stereo not drawn) [YK-4-279]
AUClast [1, 3]: 1.07 hr*¼M
AUC∞ [1, 3]: 1.31 hr*¼M
Absolute Bioavailability [1, 3]: 5.06%
Apparent Clearance [1, 3]: 52,200 mL/hr/kg
Observed Cmax [1, 3]: 0.513 ¼M
Observed Tmax [1, 3]: 0.500 h
Terminal Elimination Half-Life [1, 3]: 1.56 h
AUClast [1, 4]: 3.09 hr*¼M
AUC∞ [1, 4]: 3.14 hr*¼M
Absolute Bioavailability [1, 4]: 6.07%
Apparent Clearance [1, 4]: 43,400 mL/hr/kg
Observed Cmax [1, 4]: 0.647 ¼M
Observed Tmax [1, 4]: 0.500 h
Terminal Elimination Half-Life [1, 4]: 1.97 h
AUClast [1, 5]: 0.563 hr*¼M
AUC∞ [1, 5]: 0.754 hr*¼M
Absolute Bioavailability [1, 5]: 2.83%
Apparent Clearance [1, 5]: 90,300 mL/hr/kg
Observed Cmax [1, 5]: 0.142 ¼M
Observed Tmax [1, 5]: 1.00 h
Terminal Elimination Half-Life [1, 5]: 3.84 h
AUClast [1, 6]: 1.04 hr*¼M
AUC∞ [1, 6]: 1.18 hr*¼M
Absolute Bioavailability [1, 6]: 2.21%
Apparent Clearance [1, 6]: 116,000 mL/hr/kg
Observed Cmax [1, 6]: 0.241 ¼M
Observed Tmax [1, 6]: 2.00 h
Terminal Elimination Half-Life [1, 6]: 4.23 h
(S)-YK-4-279 Concentrations ([2]; 0.25% lecithin, 0% DMSO, 0% soybean oil): 10.5 ± 8.6 ¼M
(S)-YK-4-279 Concentrations ([2]; 1.2% lecithin, 0% DMSO, 10% soybean oil): 20.9 ± 22.8 ¼M
(S)-YK-4-279 Concentrations ([2]; 1.2% lecithin, 10% DMSO, 0% soybean oil): 35.8 ± 45.0 ¼M
(S)-YK-4-279 Concentrations ([2]; 1.2% lecithin, 10% DMSO, 10% soybean oil): 39.1 ± 54.6 ¼M
(S)-YK-4-279 Concentrations ([2]; 2.5% lecithin, 0% DMSO, 10% soybean oil): 19.8 ± 20.5 ¼M
(S)-YK-4-279 Concentrations ([2]; 2.5% lecithin, 10% DMSO, 0% soybean oil): 59.7 ± 58.6 ¼M
(S)-YK-4-279 Concentrations ([2]; 2.5% lecithin, 10% DMSO, 10% soybean oil): 21.3 ± 11.3 ¼M
Decrease in colony growth between the 24 and 36 hour time points (A4573 cells; A4573 cells, 3 ¼M YK-4-279): 3 fold
Colony counts (A4573 cells; A4573 cells, 3 ¼M YK-4-279, 24 hour exposure): 2229±101 colonies
Colony counts (A4573 cells; A4573 cells, 3 ¼M YK-4-279, 72 hours exposure): 53 colonies
Drop in colonies from the 24 hour time point (A4573 cells; [7]): 98.9%
Colony counts (A4573 cells; [7]): 25±12 colonies
Growth of surviving colonies replated in continuous presence of compound (A4573 cells; colonies from 72 and 84 hours harvested and replated in continuous presence of 3 ¼M YK-4-279): no growth was observed
